What all share (format): in vivo
In experiment [1] the test system is Septoria tritici (SEPTTR). Briefly: Septoria blotch of wheat foliar protectant test. The settings on record: Zymoseptoria tritici, read-out: Activity against fungal diseases SEPTTR; for pest or weed control at 200 ppm: 200 ppm foliar, inoculated one day after treatment; for pest or weed control at 25 ppm: foliar, Tested at 25 ppm (footnote b). As to the method: (§1) The plants were inoculated with the fungus one day after treatment. ***=80-100% control; **=50-79% control; *=0-49% control. It will be understood by those in the art that the efficacy of the compounds against the foregoing fungi establishes the general utility of the compounds as fungicides. The activity of the compounds as effective fungicides was determined by applying the compounds to plants and observing control of fungal disease. […] All plants were inoculated with spores of the fungus the day after treatment, then incubated in an environment conducive to disease development. Disease severity was evaluated 4 to 25 days later, depending on the speed of disease development. The following experiments were performed in the laboratory to determine the fungicidal efficacy of the compounds of the invention. […] Each pot contained 3-10 seedlings. These plants were sprayed until wet with the formulated test compound. On the following day, the leaves were inoculated with an aqueous spore suspension of Septoria tritici and the plants were kept in high humidity (one day in a dark dew chamber followed by three days in a lighted dew chamber) to permit spores to germinate and infect the leaf. The plants were then transferred to a greenhouse until disease developed on untreated control plants. Table 1 presents the activity of typical compounds of the present invention when evaluated in these experiments. The effectiveness of the test compounds at controlling disease when sprayed on leaves was determined by assessing the severity of disease on treated plants, then converting the severity to percent control based on the level of disease on untreated, inoculated plants.

Experiment [2] concerns Pseudoperonospora cubensis (PSPECU). Put plainly: Cucumber downy mildew foliar protectant test. The settings on record: 200 ppm foliar, inoculated one day after treatment, read-out: Activity against fungal diseases PSPECU. As to the method:
The plants were inoculated with the fungus one day after treatment. ***=80-100% control; **=50-79% control; *=0-49% control. It will be understood by those in the art that the efficacy of the compounds against the foregoing fungi establishes the general utility of the compounds as fungicides. The activity of the compounds as effective fungicides was determined by applying the compounds to plants and observing control of fungal disease. […] All plants were inoculated with spores of the fungus the day after treatment, then incubated in an environment conducive to disease development. Disease severity was evaluated 4 to 25 days later, depending on the speed of disease development. The following experiments were performed in the laboratory to determine the fungicidal efficacy of the compounds of the invention. Cucumber Downy Mildew (Causal Agent Pseudoperonospora cubensis; Bayer Code […]): Cucumber plants (variety “Bush Champion' or 'Bush Pickle Hybrid') were grown from seed in a soil-less peat-based potting mixture (Metromix) until the first true leaf was 20-80% expanded. Each pot contained 1 seedling. These plants were sprayed until wet with the formulated test compound. On the following day, the leaves were inoculated with an aqueous suspension of downy mildew sporangia and the plants were kept in high humidity for one day to permit sporangia to germinate and infect the leaf. The plants were then incubated in a growth chamber until disease developed on untreated control plants. Table 1 presents the activity of typical compounds of the present invention when evaluated in these experiments. The effectiveness of the test compounds at controlling disease when sprayed on leaves was determined by assessing the severity of disease on treated plants, then converting the severity to percent control based on the level of disease on untreated, inoculated plants.

Experiment [3] deals with Magnaporthe grisea = Pyricularia oryzae (PYRIOR). Put plainly: whole plant or invertebrate. The settings on record: foliar, read-out: Activity against fungal diseases PYRIOR.
In experiment [4] the test system is Puccinia recondita tritici (PUCCRT). Put plainly: Leaf rust of wheat foliar protectant test. The settings on record: 200 ppm foliar, inoculated one day after treatment, read-out: Activity against fungal diseases PUCCRT. As to the method:
as §1, with “3-8” for “3-10”, “compounds.” for “compound.”, “Puccinia recondita” for “Septoria”, “overnight” for “(one day in a dark dew chamber followed by three days in a lighted dew chamber)”

Structures are written as SMILES.

Regarding `Cc1cc(C(F)(F)F)cc(Oc2ccc(CCNc3ncnc4c(F)ccc(F)c34)cc2)n1` [Compound 7], the pest or weed control at 200 ppm in experiment [1], in experiment [2], in experiment [3] and in experiment [4] was 80 to 100% in each case.

As to `Fc1ccc(F)c2c(NCCOc3ccc(Oc4cc(C(F)(F)F)ccn4)cc3)ncnc12` [Compound 8], the pest or weed control at 200 ppm in experiment [1] lay in the range of 50 to 79%; in experiment [2] it was 80 to 100%; in experiment [3] it was 80 to 100%; in experiment [4], 80 to 100%.

As to `COc1cc(C(F)(F)F)cc(Oc2ccc(CCNc3ncnc4c(F)ccc(F)c34)cc2)n1` [Compound 9], the pest or weed control at 200 ppm in experiment [1] lay in the range of 50 to 79%; in experiment [2], 80 to 100%; in experiment [3] it was 80 to 100%; in experiment [4], 80 to 100%.

On to `CC(F)(F)c1cc[n+]([O-])c(Oc2ccc(CCNc3ncnc4c(F)ccc(F)c34)cc2)c1` [Compound 10], for which the pest or weed control at 200 ppm in experiment [1] is 80 to 100%; in experiment [2], 80 to 100%; in experiment [3] it was 50 to 79%; in experiment [4], 80 to 100%.

Take `COc1cc(C(C)(F)F)cc(Oc2ccc(CCNc3ncnc4c(F)ccc(F)c34)cc2)n1` [Compound 11]: the pest or weed control at 200 ppm in experiment [1] is 80 to 100%; in experiment [2], 80 to 100%; in experiment [3] it was 50 to 79%; in experiment [4], 80 to 100%.

`CC(F)(F)c1ccnc(Oc2ccc(CCNc3ncnc4c(F)ccc(F)c34)cc2)c1` [Compound 12]: the pest or weed control at 200 ppm in experiment [1], in experiment [2], in experiment [3] and in experiment [4] was 80 to 100% throughout.

Regarding `COc1cc(CCNc2ncnc3c(F)ccc(F)c23)ccc1O` [Compound 14], the pest or weed control at 25 ppm in experiment [1] fell in the range of 0 to 49%. Moreover, the pest or weed control at 200 ppm in experiment [2] is 50 to 79%; in experiment [3], 0 to 49%; in experiment [4] it was 0 to 49%.

As to `COc1cc(CCNc2ncnc3c(F)ccc(F)c23)ccc1Oc1cc(C(C)(F)F)ccn1` [Compound 16], the pest or weed control at 200 ppm in experiment [1], in experiment [2], in experiment [3] and in experiment [4] was 80 to 100% in each case.

Consider `COc1cc(C)c(CCNc2ncnc3c(F)ccc(F)c23)cc1C` [Compound 17], for which the pest or weed control at 200 ppm fell in the range of 0 to 49% in experiment [1], 80 to 100% in experiment [2], 50 to 79% in experiment [3] and 80 to 100% in experiment [4].

Consider `Cc1cc(CCNc2ncnc3c(F)ccc(F)c23)c(C)cc1O` [Compound 18], for which the pest or weed control at 200 ppm is 0 to 49% in experiment [1], 0 to 49% in experiment [2], 0 to 49% in experiment [3] and 50 to 79% in experiment [4].

Regarding `Cc1cc(Oc2cc(C(F)(F)F)ccn2)c(C)cc1CCNc1ncnc2c(F)ccc(F)c12` [Compound 19], the pest or weed control at 200 ppm in experiment [1], in experiment [2], in experiment [3] and in experiment [4] was 80 to 100% each time.

For the molecule `COc1ccc(CCNc2ncnc3c(F)ccc(F)c23)c(C)c1C` [Compound 20], the pest or weed control at 200 ppm in experiment [1] lay in the range of 50 to 79%; in experiment [2], 80 to 100%; in experiment [3] it was 50 to 79%; in experiment [4] it was 80 to 100%.

For the molecule `COc1ccc(CCNc2ncnc3c(F)ccc(F)c23)cc1C` [Compound 21], the pest or weed control at 25 ppm in experiment [1] is 0 to 49%. For the same molecule, the pest or weed control at 200 ppm fell in the range of 80 to 100% in experiment [2], 50 to 79% in experiment [3] and 50 to 79% in experiment [4].

With `Cc1c(O)ccc(CCNc2ncnc3c(F)ccc(F)c23)c1C` [Compound 23], the pest or weed control at 200 ppm in experiment [1] lay within 0 to 49%; in experiment [2] it was 80 to 100%; in experiment [3], 50 to 79%; in experiment [4], 50 to 79%.

For the molecule `Cc1cc(CCNc2ncnc3c(F)ccc(F)c23)ccc1O` [Compound 24], the pest or weed control at 200 ppm in experiment [1], in experiment [2], in experiment [3] and in experiment [4] was 0 to 49% in each case.

For the molecule `Cc1cc(CCNc2ncnc3c(F)ccc(F)c23)ccc1Oc1cc(C(F)(F)F)ccn1` [Compound 25], the pest or weed control at 200 ppm in experiment [1], in experiment [2], in experiment [3] and in experiment [4] was 80 to 100% each time.

Turning to `Cc1c(CCNc2ncnc3c(F)ccc(F)c23)ccc(Oc2cc(C(F)(F)F)ccn2)c1C` [Compound 26], the pest or weed control at 200 ppm in experiment [1] lay within 80 to 100%; in experiment [2], 80 to 100%; in experiment [3], 50 to 79%; in experiment [4], 80 to 100%.

Take `Oc1ccc(CCNc2ncnc3c(F)cc(F)c(F)c23)cc1` [Compound 27]: the pest or weed control at 200 ppm in experiment [1], in experiment [2], in experiment [3] and in experiment [4] was 0 to 49% in each case.

Consider `COC(=O)c1cnc(Oc2ccc(CCNc3ncnc4c(F)ccc(F)c34)cc2)cc1C(F)(F)F` [Compound 28], for which the pest or weed control at 25 ppm in experiment [1] lay within 80 to 100%. The pest or weed control at 200 ppm in experiment [2], in experiment [3] and in experiment [4] was 80 to 100% throughout.

Regarding `COc1cc(C(F)(F)F)cc(Oc2ccc(CCNc3ncnc4c(F)ccc(F)c34)cc2C)n1` [Compound 29], the pest or weed control at 200 ppm in experiment [1] lay within 80 to 100%; in experiment [2] it was 80 to 100%; in experiment [3], 50 to 79%; in experiment [4], 80 to 100%.

`COc1cc(C(F)(F)F)cc(Oc2ccc(CCNc3ncnc4c(F)ccc(F)c34)c(C)c2C)n1` [Compound 30]: the pest or weed control at 200 ppm is 0 to 49% in experiment [1], 50 to 79% in experiment [2], 50 to 79% in experiment [3] and 80 to 100% in experiment [4].

In the case of `COc1ccc(CCNc2ncnc3c(F)ccc(F)c23)cc1Br` [Compound 32], the pest or weed control at 200 ppm fell in the range of 0 to 49% in experiment [1], 80 to 100% in experiment [2], 50 to 79% in experiment [3] and 80 to 100% in experiment [4].

For the molecule `COc1cc(CCNc2ncnc3c(F)cc(F)c(F)c23)ccc1Oc1cc(C(F)(F)F)ccn1` [Compound 34], the pest or weed control at 200 ppm in experiment [1], in experiment [2], in experiment [3] and in experiment [4] was 80 to 100% in each case.

Regarding `Cc1cc(CCNc2ncnc3c(F)ccc(F)c23)ccc1Oc1ccncc1C(F)(F)F` [Compound 37], the pest or weed control at 25 ppm in experiment [1] fell in the range of 50 to 79%. The pest or weed control at 200 ppm in experiment [2] and in experiment [4] was 80 to 100% in each case. Besides, in experiment [3], the pest or weed control at 3 ppm is 80 to 100%.

These data come from patent publication US9000162B2, “5,8-difluoro-4-(2-(4-(heteroaryloxy)-phenyl)ethylamino)quinazolines and their use as agrochemicals” (Dow AgroSciences LLC, priority 2008, dated 2015).
